Results on five compounds are retold here after patent US20240067693A1, “POLYPEPTIDES AND USES THEREOF” (MEDIMMUNE LIMITED, priority 2020, published 2024).

Assay [1] concerns the target T1, human amylin receptor (calcitonin receptor co-expressed with receptor activity modifying protein, RAMP3) (hAMYR3) (Homo sapiens, UniProt O60896+P30988).
T1 construct: expressed in transfected cells
T1 sequence (P30988 25-474): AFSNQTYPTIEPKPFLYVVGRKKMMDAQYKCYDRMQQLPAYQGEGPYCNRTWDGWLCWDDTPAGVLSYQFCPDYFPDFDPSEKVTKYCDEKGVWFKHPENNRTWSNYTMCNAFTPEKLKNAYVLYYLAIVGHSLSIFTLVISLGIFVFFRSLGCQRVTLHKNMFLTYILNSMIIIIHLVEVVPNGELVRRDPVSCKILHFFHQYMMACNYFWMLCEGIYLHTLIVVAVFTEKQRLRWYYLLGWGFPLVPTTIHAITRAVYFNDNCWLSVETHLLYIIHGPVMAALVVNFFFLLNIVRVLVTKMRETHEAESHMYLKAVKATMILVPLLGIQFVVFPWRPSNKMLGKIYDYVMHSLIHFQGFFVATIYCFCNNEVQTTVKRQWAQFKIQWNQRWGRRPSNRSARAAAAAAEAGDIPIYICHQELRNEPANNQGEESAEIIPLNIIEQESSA
T1 sequence (O60896 24-148 partner): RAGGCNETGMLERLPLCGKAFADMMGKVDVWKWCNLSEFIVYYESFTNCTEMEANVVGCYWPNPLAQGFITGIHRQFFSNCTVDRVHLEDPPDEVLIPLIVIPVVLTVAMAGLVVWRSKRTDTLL
The experiment in a line: cAMP production in 1321N1 cells with stable recombinant expression of human amylin receptor (hAMYR3). Format: cell-based. As to conditions: for Ratio (selectivity hAMYR vs hCTR, ratio of EC50 values at the two receptors): EC50 hCTR / EC50 hAMYR3; for EC50: cAMP, 1321N1 cells, assay buffer with 0.1% BSA, read-out: EC50 (pM) hAMYR3. In a few lines: (§1)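 Thawed cells in HBSS/0.1% BSA/25 mM HEPES pH 7.4 with 0.5 mM IBMX were incubated with peptides 30 min at room temperature; cAMP read by HTRF. EC50 from 4-parameter fit of % activation relative to maximal amylin or calcitonin effect.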

Assay [2] concerns the target T2, human calcitonin receptor (hCTR) (Homo sapiens, UniProt P30988).
T2 construct: expressed in transfected cells
T2 sequence (P30988 25-474): T1 sequence (P30988 25-474)
The assay can be described thus: cAMP production in 1321N1 cells with stable recombinant expression of human calcitonin receptor (hCTR). Format: cell-based. As to conditions: cAMP, 1321N1 cells, assay buffer with 0.1% BSA; read-out: EC50 (pM) hCTR. The gist of the method: as §1
For orientation: Cyclic AMP is a second messenger, typically raised through Gs and lowered through Gi signalling.

Numbered stars: 1 amine (or outer) side, 2 acyl side, 3 side chain; on linkers, the order of the positions; unused ones are H or OH. Bridge positions count the residues as written; N and C are the ends. Square brackets hold non-standard residues; d marks the D form. Side chains are listed from the residue outwards. Peptide text beside a SMILES is read from it. * marks the point of attachment. C20 diacid = O=C(O)CCCCCCCCCCCCCCCCCCC(=O)*; C18 diacid = O=C(O)CCCCCCCCCCCCCCCCC(=O)*; γGlu = O=C(O)[C@H](CCC(=O)[*:2])N[*:1]; Dab = NCC[C@H](N)C(=O)O; Aib = CC(C)(N)C(=O)O

Usually EC50 stands for the midpoint of the concentration-response curve. In the case of `CC[C@H](C)[C@H](NC(=O)[C@@H]1CCCN1C(=O)CNC(=O)[C@H](Cc1ccccc1)NC(=O)[C@H](CC(N)=O)NC(=O)C(C)(C)NC(=O)[C@H](CO)NC(=O)[C@H](CO)NC(=O)[C@H](Cc1c[nH]cn1)NC(=O)[C@@H](NC(=O)[C@H](CC(C)C)NC(=O)[C@H](Cc1ccccc1)NC(=O)[C@H](CC(N)=O)NC(=O)[C@H](C)NC(=O)[C@H](CC(C)C)NC(=O)[C@H](CCCNC(=N)N)NC(=O)[C@H](CCC(N)=O)NC(=O)[C@@H](NC(=O)[C@H](C)NC(=O)[C@@H]1CSSC[C@H](NC(=O)[C@H](CCCCN)NC(=O)[C@@H](N)CCCCNC(=O)CC[C@H](NC(=O)CC[C@H](NC(=O)CCCCCCCCCCCCCCCCC(=O)O)C(=O)O)C(=O)O)C(=O)N[C@@H](CC(N)=O)C(=O)N[C@@H]([C@@H](C)O)C(=O)N[C@@H](C)C(=O)N[C@@H]([C@@H](C)O)C(=O)N1)[C@@H](C)O)C(C)C)C(=O)N[C@@H](CC(C)C)C(=O)N1CCC[C@H]1C(=O)N1CCC[C@H]1C(=O)N[C@H](C(=O)N[C@@H](CC(N)=O)C(=O)N[C@H](C(=O)NCC(=O)N[C@@H](CO)C(=O)N[C@@H](CCCNC(=N)N)C(=O)N[C@H](C(=O)N[C@@H](Cc1ccc(O)cc1)C(N)=O)[C@@H](C)O)C(C)C)[C@@H](C)O` [Peptide 74, K(γE-γE-C18diacid)K[CNTATC]ATQRLANFLVHSS(Aib)NFGPILPPTNVGSRTY-amide] (H-K([γGlu-γGlu-C18 diacid])KCNTATCATQRLANFLVHSS[Aib]NFGPILPPTNVGSRTY-NH2; disulfide 3-8; N-terminus assumed), in assay [1], the “Ratio (selectivity hAMYR vs hCTR, ratio of EC50 values at the two receptors)” value was found to be 13 and the EC50 is 356 pM. Moreover, in assay [2], the EC50 was 4570 pM.

Take `CC[C@H](C)[C@H](NC(=O)[C@H](C)NC(=O)[C@@H]1CCCN1C(=O)[C@H](Cc1ccccc1)NC(=O)[C@H](CC(N)=O)NC(=O)C(C)(C)NC(=O)[C@H](CO)NC(=O)[C@H](CO)NC(=O)[C@H](Cc1c[nH]cn1)NC(=O)[C@@H](NC(=O)[C@H](CC(C)C)NC(=O)[C@H](Cc1ccccc1)NC(=O)[C@H](CC(N)=O)NC(=O)[C@H](C)NC(=O)[C@H](CC(C)C)NC(=O)[C@H](CCCNC(=N)N)NC(=O)[C@H](CCC(N)=O)NC(=O)[C@@H](NC(=O)[C@H](C)NC(=O)[C@@H]1CSSC[C@H](NC(=O)[C@@H](N)CCCCNC(=O)CC[C@H](NC(=O)CC[C@H](NC(=O)CCCCCCCCCCCCCCCCCCC(=O)O)C(=O)O)C(=O)O)C(=O)N[C@@H](CC(N)=O)C(=O)N[C@@H]([C@@H](C)O)C(=O)N[C@@H](C)C(=O)N[C@@H]([C@@H](C)O)C(=O)N1)[C@@H](C)O)C(C)C)C(=O)N[C@@H](CC(C)C)C(=O)N[C@@H](CO)C(=O)N1CCC[C@H]1C(=O)N[C@H](C(=O)N[C@@H](CCN)C(=O)N[C@H](C(=O)NCC(=O)N[C@@H](CO)C(=O)N[C@@H](CC(N)=O)C(=O)N[C@H](C(=O)N[C@@H](Cc1ccc(O)cc1)C(N)=O)[C@@H](C)O)C(C)C)[C@@H](C)O` [Peptide 123, K(γE-γE-C20diacid)[CNTATC]ATQRLANFLVHSS(Aib)NFPAILSPT(Dab)VGSNTY-amide] (H-K([γGlu-γGlu-C20 diacid])CNTATCATQRLANFLVHSS[Aib]NFPAILSPT[Dab]VGSNTY-NH2; disulfide 2-7; N-terminus assumed): in assay [1], the “Ratio (selectivity hAMYR vs hCTR, ratio of EC50 values at the two receptors)” value is 5 and the concentration for a half-maximal effect (EC50) turned out to be 873 pM. In addition, the EC50 in assay [2] is 4790 pM.

With `CC(C)C[C@H](NC(=O)[C@H](CCCNC(=N)N)NC(=O)[C@H](CCC(N)=O)NC(=O)[C@@H](NC(=O)[C@H](C)NC(=O)[C@@H]1CSSC[C@H](NC(=O)[C@H](CCCCN)NC(=O)[C@@H](N)CCCCNC(=O)CC[C@H](NC(=O)CCCCCCCCCCCCCCCCC(=O)O)C(=O)O)C(=O)N[C@@H](CC(N)=O)C(=O)N[C@@H]([C@@H](C)O)C(=O)N[C@@H](C)C(=O)N[C@@H]([C@@H](C)O)C(=O)N1)[C@@H](C)O)C(=O)N[C@@H](C)C(=O)N[C@@H](CC(N)=O)C(=O)N[C@@H](Cc1ccccc1)C(=O)N[C@@H](CC(C)C)C(=O)N[C@@H](CCCNC(=N)N)C(=O)N[C@@H](Cc1c[nH]cn1)C(=O)N[C@@H](CO)C(=O)N[C@@H](CO)C(=O)N[C@@H](CC(N)=O)C(=O)N[C@@H](CC(N)=O)C(=O)N[C@@H](Cc1ccccc1)C(=O)NCC(=O)N1CCC[C@H]1C(=O)NC(C)(C)C(=O)N[C@@H](CC(C)C)C(=O)N1CCC[C@H]1C(=O)N1CCC[C@H]1C(=O)N[C@H](C(=O)N[C@@H](CC(N)=O)C(=O)N[C@H](C(=O)NCC(=O)N[C@@H](CO)C(=O)N[C@@H](CC(N)=O)C(=O)N[C@H](C(=O)N[C@@H](Cc1ccc(O)cc1)C(N)=O)[C@@H](C)O)C(C)C)[C@@H](C)O` [Peptide 107, K(γE-C18diacid)K[CNTATC]ATQRLANFLRHSSNNFGP(Aib)LPPTNVGSNTY-amide] (H-K([γGlu-C18 diacid])KCNTATCATQRLANFLRHSSNNFGP[Aib]LPPTNVGSNTY-NH2; disulfide 3-8; N-terminus assumed), in assay [1], the “Ratio (selectivity hAMYR vs hCTR, ratio of EC50 values at the two receptors)” value is recorded as 25 and the concentration giving a half-maximal response (EC50) was determined as 1070 pM. The EC50 in assay [2] was determined as 26300 pM.

Take `CC[C@H](C)[C@H](NC(=O)[C@@H]1CCCN1C(=O)CNC(=O)[C@H](Cc1ccccc1)NC(=O)[C@H](CC(N)=O)NC(=O)C(C)(C)NC(=O)[C@H](CO)NC(=O)[C@H](CO)NC(=O)[C@H](Cc1c[nH]cn1)NC(=O)[C@H](CCCNC(=N)N)NC(=O)[C@H](CC(C)C)NC(=O)[C@H](Cc1ccccc1)NC(=O)[C@H](CC(N)=O)NC(=O)[C@H](C)NC(=O)[C@H](CC(C)C)NC(=O)[C@H](CCCNC(=N)N)NC(=O)[C@H](CCC(N)=O)NC(=O)[C@@H](NC(=O)[C@H](C)NC(=O)[C@@H]1CSSC[C@H](NC(=O)[C@@H](N)CCCCNC(=O)CC[C@H](NC(=O)CC[C@H](NC(=O)CCCCCCCCCCCCCCCCC(=O)O)C(=O)O)C(=O)O)C(=O)N[C@@H](CC(N)=O)C(=O)N[C@@H]([C@@H](C)O)C(=O)N[C@@H](C)C(=O)N[C@@H]([C@@H](C)O)C(=O)N1)[C@@H](C)O)C(=O)N[C@@H](CC(C)C)C(=O)N1CCC[C@H]1C(=O)N1CCC[C@H]1C(=O)N[C@H](C(=O)N[C@@H](CCC(=O)O)C(=O)N[C@H](C(=O)NCC(=O)N[C@@H](CO)C(=O)N[C@@H](CC(N)=O)C(=O)N[C@H](C(=O)N[C@@H](Cc1ccc(O)cc1)C(N)=O)[C@@H](C)O)C(C)C)[C@@H](C)O` [Peptide 50, K(γE-γE-C18diacid)[CNTATC]ATQRLANFLRHSS(Aib)NFGPILPPTEVGSNTY-amide] (H-K([γGlu-γGlu-C18 diacid])CNTATCATQRLANFLRHSS[Aib]NFGPILPPTEVGSNTY-NH2; disulfide 2-7; N-terminus assumed): in assay [1], the “Ratio (selectivity hAMYR vs hCTR, ratio of EC50 values at the two receptors)” value was 54 and the EC50 came out at 349 pM. Moreover, in assay [2], the 50% effective concentration (EC50) is 18900 pM.

For the compound `CC[C@H](C)[C@H](NC(=O)[C@@H]1CCCN1C(=O)CNC(=O)[C@H](Cc1ccccc1)NC(=O)[C@H](CC(N)=O)NC(=O)C(C)(C)NC(=O)[C@H](CO)NC(=O)[C@H](CO)NC(=O)[C@H](Cc1c[nH]cn1)NC(=O)[C@@H](NC(=O)[C@H](CC(C)C)NC(=O)[C@H](Cc1ccccc1)NC(=O)[C@H](Cc1c[nH]cn1)NC(=O)[C@H](C)NC(=O)[C@H](CC(C)C)NC(=O)[C@H](CCCNC(=N)N)NC(=O)[C@H](CCC(N)=O)NC(=O)[C@@H](NC(=O)[C@H](C)NC(=O)[C@@H]1CSSC[C@H](NC(=O)[C@H](CCCCN)NC(=O)[C@@H](N)CCCCNC(=O)CC[C@H](NC(=O)CCCCCCCCCCCCCCCCC(=O)O)C(=O)O)C(=O)N[C@@H](CC(N)=O)C(=O)N[C@@H]([C@@H](C)O)C(=O)N[C@@H](C)C(=O)N[C@@H]([C@@H](C)O)C(=O)N1)[C@@H](C)O)C(C)C)C(=O)N[C@@H](CC(C)C)C(=O)N1CCC[C@H]1C(=O)N1CCC[C@H]1C(=O)N[C@H](C(=O)N[C@@H](CC(N)=O)C(=O)N[C@H](C(=O)NCC(=O)N[C@@H](CO)C(=O)N[C@@H](CC(N)=O)C(=O)N[C@H](C(=O)N[C@@H](Cc1ccc(O)cc1)C(N)=O)[C@@H](C)O)C(C)C)[C@@H](C)O` [Peptide 46, K(γE-C18diacid)K[CNTATC]ATQRLAHFLVHSS(Aib)NFGPILPPTNVGSNTY-amide] (H-K([γGlu-C18 diacid])KCNTATCATQRLAHFLVHSS[Aib]NFGPILPPTNVGSNTY-NH2; disulfide 3-8), in assay [1], the “Ratio (selectivity hAMYR vs hCTR, ratio of EC50 values at the two receptors)” value was 3 and the EC50 was 109 pM. Besides, the EC50 in assay [2] worked out at 362 pM.
